From US20130122541A1, “MICROORGANISM PRODUCTION OF HIGH-VALUE CHEMICAL PRODUCTS, AND RELATED COMPOSITIONS, METHODS AND SYSTEMS” (The Regents of the University of Colorado, priority 2010, published 2013)
≈ marks a conversion by molar mass, not a printed value. Like-named read-outs stand apart in the source and are kept apart here.

Tests used:
[1] = test system: Yeast strains (S288C background); assay: microbe, parasite or virus in culture; type: cell-based, Saccharomyces cerevisiae; conditions: anaerobic; for % Increase Over Control: 3-HP MIC with named supplement(s) vs S288C in SD without supplement; for average MIC Assay Result (g/L 3-HP): MIC of 3-HP; for average MIC Assay Result (g/L 3-HP) / MIC: S288C, SD media plus the named supplement(s); for MIC: Saccharomyces cerevisiae, read-out: Average MIC Assay Result (g/L 3-HP), MIC of 3-HP
Description: The minimum inhibitory concentration (MIC) was determined anaerobically in a 96 well-plate format. […] A 1% (v/v) inoculum was introduced into a 5 ml culture of SD minimal media without vitamins. After the cells reached mid-exponential phase, the culture was diluted to an OD600 of 0.200. The cells were further diluted 1:5 and a 10 μL aliquot was used to inoculate each well of a 96 well plate (˜10^4 cells per well) to total volume of 100 uL. […] Plates were incubated for 72 hours at 30 C. […] Plates were sealed in biobag anaerobic chambers that contained gas generators for anaerobic conditions and incubated for 72 hours at 30 C.

E. coli [2] = assay: microbe, parasite or virus in culture; type: cell-based; conditions: anaerobic; for % Increase Over Control: 3-HP MIC with named supplement(s) vs BW25113 in M9 without supplement; for MIC Assay Result (g/L 3-HP): MIC of 3-HP, BW25113, M9 media plus the named supplement(s), 24-hour
Description: (§1) For MIC evaluations, the final results are expressed in chemical agent concentrations determined by analysis of the stock solution by HPLC (i.e., see Subsection IIIb).
(§2) The minimum inhibitory concentration (MIC) was determined anaerobically in a 96 well-plate format. […] Media supplements were added according to levels reported in the Supplements Table, where specified. Overnight cultures of strains were grown in triplicate in 5 mL LB (with antibiotic where appropriate). A 1% (v/v) inoculum was introduced into a 5 ml culture of M9 minimal media.

E. coli [3] = assay: microbe, parasite or virus in culture; type: cell-based; conditions: aerobic; for average MIC Assay Result (g/L 3-HP): MIC of 3-HP for strain BW25113, M9 media with the named supplement(s), 24-hour MIC evaluation; for % Increase Over Control: increase of 3-HP MIC over BW25113 in M9 without supplements, M9 media with the named supplement(s)
Description: as §1
as §2, with “aerobically” for “anaerobically”

[4] = test system: Yeast strains (S288C background); assay: microbe, parasite or virus in culture; type: cell-based, Saccharomyces cerevisiae; conditions: aerobic; for % Increase Over Control: 3-HP MIC with named supplement(s) vs S288C in SD without supplement
Description: The minimum inhibitory concentration (MIC) was determined aerobically in a 96 well-plate format. […] Media supplements were added according to levels reported in the Supplements Table, where specified. Overnight cultures of strains were grown in triplicate in 5 mL SD media with vitamins (Methods in Enzymology vol. 350, page 17 (2002)). A 1% (v/v) inoculum was introduced into a 5 ml culture of SD minimal media without vitamins. After the cells reached mid-exponential phase, the culture was diluted to an OD600 of 0.200. The cells were further diluted 1:5 and a 10 μL aliquot was used to inoculate each well of a 96 well plate (˜10^4 cells per well) to total volume of 100 uL. […] Plates were incubated for 72 hours at 30 C.

E. coli K12 = assay: microbe, parasite or virus in culture; conditions: Escherichia coli, K12, 24 h, read-out: Minimum inhibitory concentration (MIC) of 3-HP for E. coli K12 in M9 minimal media supplemented with the substance
E. coli Mach1-T1R = assay: MIC of 3-HP, microaerobic 96 well-plate, MOPS minimal media with supplements (Example 36); type: cell-based, Escherichia coli; conditions: increase of the 3-HP MIC, 24 h
Description: 3-HP was obtained from TCI America (Portland, Oreg.). Significant acrylic acid and 2-oxydipropionic contamination was observed via HPLC analysis. Samples were subsequently treated by diethyl ether extraction to remove acrylic acid and a portion of the 2-oxydipropionic contaminants. Samples were then neutralized with 10 M NaOH to a final pH of 7.0. […] The working stock solution was used for the selection, growth rates and MIC evaluations in this example.
Overnight cultures of strains were grown in 5 ml LB (with antibiotic where appropriate). A 1 v/v % was used to inoculate a 15 ml conical tube filled to the top with MOPS minimal media and capped. After the cells reached mid exponential phase, the culture was diluted to an OD600 of 0.200. The cells were further diluted 1:20 and a 10 ul aliquot was used to inoculate each well (˜10^4 cells per well).

B. subtilis = assay: MIC evaluation of 3-HP, B. subtilis aerobic, M9 media + glutamate, 96 well-plate, 24 h (Common Methods); type: cell-based; conditions: for Avg 24 hr ΔOD600: 3HP tolerance, B. subtilis 168, M9 + glu + trp plus the named supplement(s); for % Increase Over Control: ΔOD600 with named supplement(s) vs B. subtilis 168 without supplement
Description: as §1
as §2, with “aerobically” for “anaerobically”, “Table” for “Table,”, “media+glutamate.” for “media.”

## N[C@@H](CO)C(=O)O [Serine (B)]
[1]
  % Increase Over Control: 20%
  average MIC Assay Result (g/L 3-HP): 45 g/L
E. coli [2]
  % Increase Over Control: 7%
  MIC Assay Result (g/L 3-HP): 32.1 g/L
E. coli [3]
  average MIC Assay Result (g/L 3-HP): 32 g/L 3-HP
  % Increase Over Control: 17%

## O=C(O)C1=C[C@@H](O)[C@@H](O)[C@H](O)C1 [Shikimate (A)]
[1]
  % Increase Over Control: 60%
  average MIC Assay Result (g/L 3-HP): 60 g/L
[4]
  % Increase Over Control: 78%
[4]; MIC of 3-HP, S288C, SD media plus the named supplement(s)
  average MIC Assay Result (g/L 3-HP): 80 g/L
E. coli [3]
  average MIC Assay Result (g/L 3-HP): 28 g/L 3-HP
  % Increase Over Control: 3%

## NCCCCNCCCN [Spermidine (C)]
[1]
  % Increase Over Control: 60%
  MIC: 60 g/L
E. coli [3]
  average MIC Assay Result (g/L 3-HP): 40 g/L 3-HP

## Nc1nc(=O)c2c([nH]1)NC[C@@H](CNc1ccc(C(=O)N[C@@H](CCC(=O)O)C(=O)O)cc1)N2 [Tetrahydrofolate (A)]
E. coli [2]
  % Increase Over Control: 33%
  MIC Assay Result (g/L 3-HP): 40.0 g/L
E. coli [3]
  average MIC Assay Result (g/L 3-HP): 30 g/L 3-HP
  % Increase Over Control: 9%

## C[C@@H](O)[C@H](N)C(=O)O [Threonine (B)]
[1]
  % Increase Over Control: 2%
  MIC: 38 g/L
E. coli [3]
  average MIC Assay Result (g/L 3-HP): 32 g/L 3-HP

## N[C@@H](Cc1c[nH]c2ccccc12)C(=O)O [Tryptophan (A)]
[1]
  % Increase Over Control: 47%
  MIC: 55 g/L
[4]
  % Increase Over Control: 20%
[4]; Saccharomyces cerevisiae, read-out: Average MIC Assay Result (g/L 3-HP), MIC of 3-HP, S288C, SD media plus the named supplement(s)
  MIC: 54 g/L

## NCCCCCN [cadaverine]
E. coli K12
  MIC: 30 mg/mL (≈ 294 mM)

## Cl.NC1CCSC1=O (centres unmarked) [homocysteine thiolactone hydrochloride]
E. coli Mach1-T1R
  MIC increase resulting from supplementation: 60%

## N[C@@H](CCO)C(=O)O [homoserine]
E. coli Mach1-T1R
  MIC increase resulting from supplementation: 33%

## CCC(=O)C(=O)O [oxobutanoate]
E. coli Mach1-T1R
  MIC increase resulting from supplementation: 7%

## Nc1ccc(C(=O)O)cc1 [p-aminobenzoate (A)]
E. coli [2]
  % Increase Over Control: 33%
  MIC Assay Result (g/L 3-HP): 40.0 g/L
E. coli [3]
  average MIC Assay Result (g/L 3-HP): 35 g/L 3-HP
  % Increase Over Control: 27%

## Nc1ccc(C(=O)O)cc1 [p-aminobenzoate]
B. subtilis
  Avg 24 hr ΔOD600: 0.07
  % Increase Over Control: 89%

## Nc1ccc(C(=O)O)cc1 [p-aminobenzoic acid]
E. coli Mach1-T1R
  MIC increase resulting from supplementation: 7%

## NNC(=O)c1ccc(O)cc1 [p-hydroxybenzoic acid hydrazide]
E. coli Mach1-T1R
  MIC increase resulting from supplementation: 33%

## N[C@@H](Cc1ccccc1)C(=O)O [phenylalanine]
E. coli Mach1-T1R
  MIC increase resulting from supplementation: 33%

## NCCCCN [putrescine]
E. coli K12
  MIC: 40 mg/mL (≈ 454 mM)

## Cc1ncc(CO)c(CO)c1O.Cl [pyridoxine hydrochloride]
E. coli Mach1-T1R
  MIC increase resulting from supplementation: 0%

## NCCCCNCCCN [spermidine]
E. coli K12
  MIC: 40 mg/mL (≈ 275 mM)
B. subtilis
  Avg 24 hr ΔOD600: 0.09
  % Increase Over Control: 140%

## C[C@@H](O)[C@H](N)C(=O)O [threonine]
E. coli Mach1-T1R
  MIC increase resulting from supplementation: 3%

## N[C@@H](Cc1c[nH]c2ccccc12)C(=O)O [tryptophan]
E. coli Mach1-T1R
  MIC increase resulting from supplementation: 33%

## N[C@@H](Cc1ccc(O)cc1)C(=O)O [tyrosine]
E. coli Mach1-T1R
  MIC increase resulting from supplementation: 40%
